According to ChEMBL document CHEMBL1201862, “PubChem BioAssay data set” (2004):
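Tested at 5 concentrations; 48 h exposure; 96-well plates; endpoints linearly interpolated, else capped at highest concentration. GI50 marks 50% less growth.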 Active and inactive are the calls of the source. No stated cut-off is given here; in the data, active = GI50 up to about 1.1 µM and inactive = higher.

What was measured:
Experiment in all cases: inhibition of tumour cell growth, NCI panel, 48 h
ACHN = test system: ACHN
UACC-257 = test system: UACC-257
SN12C = test system: SN12C
HOP-62 = test system: HOP-62
OVCAR-4 = test system: OVCAR-4
SK-MEL-5 = test system: SK-MEL-5
COLO 205 = test system: COLO 205
HL-60 = test system: HL-60
NCI-H460 = test system: NCI-H460
CCRF-CEM = test system: CCRF-CEM
SNB-75 = test system: SNB-75
SNB-19 = test system: SNB-19
UO-31 = test system: UO-31
RXF 393 = test system: RXF 393
OVCAR-5 = test system: OVCAR-5
DU-145 = test system: DU-145
PC-3 = test system: PC-3
NCI/ADR-RES = test system: NCI/ADR-RES

SMILES	GI50 (ACHN)	GI50 (UACC-257)	GI50 (SN12C)	GI50 (HOP-62)	GI50 (OVCAR-4)	GI50 (SK-MEL-5)	GI50 (COLO 205)	GI50 (HL-60)	GI50 (NCI-H460)	GI50 (CCRF-CEM)	GI50 (SNB-75)	GI50 (SNB-19)	GI50 (UO-31)	GI50 (RXF 393)	GI50 (OVCAR-5)	GI50 (DU-145)	GI50 (PC-3)	GI50 (NCI/ADR-RES)
CCc1c(OC(C)=O)c2c(NC3OC(COC(C)=O)C(OC(C)=O)C(OC(C)=O)C3OC(C)=O)nc(SC)nc2oc1=O (stereo not given)	> 100 µM (inactive)	> 100 µM (inactive)	> 100 µM (inactive)	> 100 µM (inactive)	> 100 µM (inactive)	> 100 µM (inactive)	> 100 µM (inactive)	> 100 µM (inactive)	> 100 µM (inactive)	> 100 µM (inactive)	> 100 µM (inactive)	> 100 µM (inactive)	> 100 µM (inactive)	> 100 µM (inactive)	> 100 µM (inactive)	–	–	–
S=C1CNC(=S)CN1	> 100 µM (inactive)	> 100 µM (inactive)	> 100 µM (inactive)	> 100 µM (inactive)	> 100 µM (inactive)	> 100 µM (inactive)	> 100 µM (inactive)	> 100 µM (inactive)	> 100 µM (inactive)	> 100 µM (inactive)	> 100 µM (inactive)	> 100 µM (inactive)	> 100 µM (inactive)	> 100 µM (inactive)	> 100 µM (inactive)	–	–	–
Cc1ccc(S(=O)(=O)N/N=C/CN2C(=O)c3ccccc3C2=O)cc1	> 100 µM (inactive)	> 100 µM (inactive)	> 100 µM (inactive)	> 100 µM (inactive)	> 100 µM (inactive)	> 100 µM (inactive)	> 100 µM (inactive)	> 100 µM (inactive)	> 100 µM (inactive)	> 100 µM (inactive)	> 100 µM (inactive)	> 100 µM (inactive)	> 100 µM (inactive)	–	–	–	–	–
CNC(=O)C1CCc2nnc(-c3ccccc3)n21 (stereo not given)	> 100 µM (inactive)	> 100 µM (inactive)	> 100 µM (inactive)	> 100 µM (inactive)	> 100 µM (inactive)	> 100 µM (inactive)	> 100 µM (inactive)	> 100 µM (inactive)	> 100 µM (inactive)	> 100 µM (inactive)	> 100 µM (inactive)	> 100 µM (inactive)	> 100 µM (inactive)	> 100 µM (inactive)	–	–	–	–
CC(=O)Oc1ccc2c(c1)C(=O)c1nc(C)c(C)nc1C2=O	48.4 µM (inactive)	36.6 µM (inactive)	46.5 µM (inactive)	23.7 µM (inactive)	46.3 µM (inactive)	16.2 µM (inactive)	50 µM (inactive)	24.6 µM (inactive)	30.8 µM (inactive)	35.4 µM (inactive)	80.4 µM (inactive)	> 52.4 µM (inactive)	> 74.6 µM (inactive)	31.8 µM (inactive)	> 100 µM (inactive)	–	–	–
CC(=O)NS(=O)(=O)c1ccc(NC(=O)c2c3ccccc3nc3ccccc23)cc1	> 100 µM (inactive)	> 100 µM (inactive)	> 100 µM (inactive)	> 100 µM (inactive)	> 100 µM (inactive)	> 100 µM (inactive)	> 100 µM (inactive)	1.48 µM (inactive)	> 100 µM (inactive)	> 100 µM (inactive)	> 100 µM (inactive)	> 100 µM (inactive)	30.4 µM (inactive)	–	> 100 µM (inactive)	> 100 µM (inactive)	> 100 µM (inactive)	> 100 µM (inactive)
CC(C)=CC(=O)Cc1nc2ccc([N+](=O)[O-])cc2[nH]c1=O	> 100 µM (inactive)	> 100 µM (inactive)	> 100 µM (inactive)	> 100 µM (inactive)	> 100 µM (inactive)	22.6 µM (inactive)	> 100 µM (inactive)	40.8 µM (inactive)	> 100 µM (inactive)	–	18.5 µM (inactive)	> 100 µM (inactive)	63.1 µM (inactive)	> 100 µM (inactive)	> 100 µM (inactive)	–	–	–
COc1ccc(SS(=O)(=O)c2ccc(OC)cc2)cc1	18.4 µM (inactive)	22.9 µM (inactive)	20.3 µM (inactive)	23.8 µM (inactive)	–	15.2 µM (inactive)	17.9 µM (inactive)	2.24 µM (inactive)	38.6 µM (inactive)	2.64 µM (inactive)	23.2 µM (inactive)	24.4 µM (inactive)	13.9 µM (inactive)	18.1 µM (inactive)	30 µM (inactive)	–	–	–
O=[N+]([O-])c1ccc(Cl)c(C2SCc3nc4ccccc4n32)c1 (stereo not given)	44.9 µM (inactive)	28.1 µM (inactive)	43.6 µM (inactive)	–	–	16.5 µM (inactive)	37.6 µM (inactive)	23.2 µM (inactive)	28.7 µM (inactive)	28 µM (inactive)	24.9 µM (inactive)	41.5 µM (inactive)	17.3 µM (inactive)	33 µM (inactive)	27.4 µM (inactive)	–	–	–
CN(C)CCn1cnc2ncccc2c1=O	> 100 µM (inactive)	–	> 100 µM (inactive)	> 100 µM (inactive)	> 100 µM (inactive)	> 100 µM (inactive)	> 100 µM (inactive)	–	> 100 µM (inactive)	> 100 µM (inactive)	> 100 µM (inactive)	> 100 µM (inactive)	> 100 µM (inactive)	> 100 µM (inactive)	> 100 µM (inactive)	–	–	–
O=C(O)c1cc(Cl)cc(NC(=O)C(Cl)Cl)c1Cl	> 100 µM (inactive)	> 100 µM (inactive)	> 100 µM (inactive)	> 100 µM (inactive)	> 100 µM (inactive)	> 100 µM (inactive)	> 100 µM (inactive)	> 100 µM (inactive)	> 100 µM (inactive)	> 100 µM (inactive)	> 100 µM (inactive)	> 100 µM (inactive)	> 100 µM (inactive)	> 100 µM (inactive)	–	–	–	–
O=C(NC1CCCC1=O)c1ccccc1 (stereo not given)	> 100 µM (inactive)	> 100 µM (inactive)	> 100 µM (inactive)	> 100 µM (inactive)	> 100 µM (inactive)	> 100 µM (inactive)	–	> 100 µM (inactive)	> 100 µM (inactive)	> 100 µM (inactive)	31.5 µM (inactive)	> 100 µM (inactive)	> 100 µM (inactive)	> 100 µM (inactive)	> 100 µM (inactive)	–	–	–
CC(=O)Nc1ccc(/C=C/C(=O)c2sc(-c3nc(C)c(C(=O)/C=C/c4ccc(NC(C)=O)cc4)s3)nc2C)cc1	> 100 µM (inactive)	> 100 µM (inactive)	> 100 µM (inactive)	> 100 µM (inactive)	> 100 µM (inactive)	–	> 100 µM (inactive)	> 100 µM (inactive)	> 100 µM (inactive)	> 100 µM (inactive)	–	> 100 µM (inactive)	97.5 µM (inactive)	> 100 µM (inactive)	> 100 µM (inactive)	–	–	–
Cn1c(=O)n(C2(C)CSC2)c2ccccc21	> 100 µM (inactive)	> 100 µM (inactive)	> 100 µM (inactive)	> 100 µM (inactive)	> 100 µM (inactive)	> 100 µM (inactive)	> 100 µM (inactive)	> 100 µM (inactive)	> 100 µM (inactive)	> 100 µM (inactive)	> 100 µM (inactive)	> 100 µM (inactive)	> 100 µM (inactive)	> 100 µM (inactive)	> 100 µM (inactive)	–	–	–
Brc1ccc(-c2cc3c(cc2C2SCCS2)OCO3)cc1	16.5 µM (inactive)	30 µM (inactive)	29 µM (inactive)	31.4 µM (inactive)	21.6 µM (inactive)	23.3 µM (inactive)	27.3 µM (inactive)	15.4 µM (inactive)	29.6 µM (inactive)	19.3 µM (inactive)	1.25 µM (inactive)	55.5 µM (inactive)	18.1 µM (inactive)	12.9 µM (inactive)	16.6 µM (inactive)	–	–	–
CC(C)(C)c1ccc2c(c1)S(=O)(=O)Nc1ccc(Cl)cc1NS(=O)(=O)c1cc(C(C)(C)C)ccc1OCCOCCOCCO2	42.1 µM (inactive)	55.7 µM (inactive)	43.5 µM (inactive)	32.3 µM (inactive)	5.69 µM (inactive)	28.1 µM (inactive)	> 100 µM (inactive)	> 100 µM (inactive)	26 µM (inactive)	> 100 µM (inactive)	24 µM (inactive)	62.2 µM (inactive)	53.5 µM (inactive)	19.8 µM (inactive)	> 100 µM (inactive)	–	–	–
O=C(CC1(O)C(=O)Nc2ccccc21)c1ccc(F)cc1 (stereo not given)	> 100 µM (inactive)	> 100 µM (inactive)	> 100 µM (inactive)	–	> 100 µM (inactive)	> 100 µM (inactive)	> 100 µM (inactive)	> 100 µM (inactive)	> 100 µM (inactive)	–	> 100 µM (inactive)	> 100 µM (inactive)	> 100 µM (inactive)	> 100 µM (inactive)	> 100 µM (inactive)	–	–	–
O=C1NC(=O)C2C1C1C=C3c4ccccc4N(c4ccccc4)C32[C@H]2C(=O)NC(=O)[C@@H]12 (stereo not given in full)	> 100 µM (inactive)	> 100 µM (inactive)	> 100 µM (inactive)	> 100 µM (inactive)	> 100 µM (inactive)	> 100 µM (inactive)	> 100 µM (inactive)	> 100 µM (inactive)	> 100 µM (inactive)	> 100 µM (inactive)	> 100 µM (inactive)	> 100 µM (inactive)	> 100 µM (inactive)	–	> 100 µM (inactive)	–	–	–
CC(c1ccc2c(c1)CCC1C2CC2OC23CC=CC(=O)[C@]13C)C1C[C@]2(C)O[C@]2(C)[C@H](O)O1 (stereo not given in full)	33.7 µM (inactive)	11.1 µM (inactive)	> 100 µM (inactive)	0.791 µM (active)	–	11 µM (inactive)	71.9 µM (inactive)	1.96 µM (inactive)	25.2 µM (inactive)	15.4 µM (inactive)	58.9 µM (inactive)	15.9 µM (inactive)	10.5 µM (inactive)	11.7 µM (inactive)	> 100 µM (inactive)	–	–	–
